Measured values from paper PMC10294644 (Cell, 2020).
Entries after “also recorded” stand apart in the source; their conditions may differ. Blank lines part the entries; values can stand above or below the compound they belong to.

What was measured:
LYN = LYN (Homo sapiens, UniProt P07948); type: cell-based; conditions: HEK293T cells, 1 μM, 5 h
GCK [1] = biological target: T1, GCK (Homo sapiens, UniProt Q12851); test: KiNativ live cell profiling; type: cell-based; conditions: CRBN−/− MOLT-4 cells, 1 μM, 5 h
T1 sequence (Q12851 1-820): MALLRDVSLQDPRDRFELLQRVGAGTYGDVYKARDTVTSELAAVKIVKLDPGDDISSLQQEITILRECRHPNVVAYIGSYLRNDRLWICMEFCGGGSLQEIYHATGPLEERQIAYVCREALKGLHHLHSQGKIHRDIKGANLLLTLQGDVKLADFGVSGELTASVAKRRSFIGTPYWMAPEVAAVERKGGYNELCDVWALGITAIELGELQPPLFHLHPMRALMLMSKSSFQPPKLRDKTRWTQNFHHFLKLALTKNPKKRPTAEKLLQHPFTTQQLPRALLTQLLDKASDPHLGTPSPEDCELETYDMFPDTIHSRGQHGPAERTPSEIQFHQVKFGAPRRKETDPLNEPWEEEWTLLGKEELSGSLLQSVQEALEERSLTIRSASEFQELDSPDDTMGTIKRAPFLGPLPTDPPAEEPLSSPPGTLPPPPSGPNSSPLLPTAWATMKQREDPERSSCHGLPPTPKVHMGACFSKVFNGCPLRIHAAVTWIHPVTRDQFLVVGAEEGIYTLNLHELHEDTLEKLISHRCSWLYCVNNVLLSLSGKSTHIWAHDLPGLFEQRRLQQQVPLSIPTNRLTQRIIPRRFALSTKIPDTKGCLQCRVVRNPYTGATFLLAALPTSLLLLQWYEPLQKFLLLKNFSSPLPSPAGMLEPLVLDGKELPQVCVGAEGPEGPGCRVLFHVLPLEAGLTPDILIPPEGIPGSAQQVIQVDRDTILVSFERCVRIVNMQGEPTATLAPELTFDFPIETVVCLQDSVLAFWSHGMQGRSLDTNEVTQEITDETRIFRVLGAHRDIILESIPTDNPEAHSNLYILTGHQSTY

YES1 = YES1 (Homo sapiens, UniProt P07947); type: cell-based; conditions: HEK293T cells, 1 μM, 5 h
GCK [2] = biological target: T1, GCK; test: Global quantitative proteomics, degradation of GCK; type: cell-based; conditions: 1 μM, 5 h
IRAK1 = IRAK1 (Homo sapiens, UniProt P51617); type: cell-based; conditions: HEK293T cells, 1 μM, 5 h
CDK17 = CDK17 (Homo sapiens, UniProt Q00537); test: Global quantitative proteomics; type: cell-based; conditions: MOLT-4 cells, 1 μM, 5 h, relative protein abundance
LIMK2 = LIMK2 (Homo sapiens, UniProt P53671); test: Global quantitative proteomics; type: cell-based; conditions: MOLT-4 cells, 1 μM, 5 h, relative protein abundance
AURKA (Aurora A) = biological target: T2, AURKA (Aurora A) (Homo sapiens, UniProt O14965); test: Global quantitative proteomics and immunoblot, degradation of AURKA; type: cell-based; conditions: MOLT-4 cells 1 μM 5 h proteomics; validated by immunoblotting in MM.1S cells
T2 sequence (O14965 1-403): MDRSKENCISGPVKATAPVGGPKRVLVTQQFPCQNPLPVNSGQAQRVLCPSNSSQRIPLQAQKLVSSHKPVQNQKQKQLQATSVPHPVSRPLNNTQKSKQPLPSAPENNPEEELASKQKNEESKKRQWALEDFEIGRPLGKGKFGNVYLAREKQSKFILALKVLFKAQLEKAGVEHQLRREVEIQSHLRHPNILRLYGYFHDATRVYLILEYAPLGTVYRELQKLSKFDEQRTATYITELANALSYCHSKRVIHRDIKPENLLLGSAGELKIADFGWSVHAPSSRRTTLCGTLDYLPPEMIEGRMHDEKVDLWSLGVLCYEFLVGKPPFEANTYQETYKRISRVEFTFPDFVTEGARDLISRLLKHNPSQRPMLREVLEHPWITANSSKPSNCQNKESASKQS

[3] = tested on: MM.1S multiple myeloma cell line; test: CellTiter-Glo viability assay; type: cell-based, human; conditions: MM.1S cells, 72 h, compared with parental inhibitor alisertib
BUB1 = BUB1 (Homo sapiens, UniProt O43683); type: cell-based; conditions: MOLT-4 and MM.1S cell lines
MOLT-4 cells = test: Time-course RNA-sequencing; type: cell-based, human; conditions: for transcript levels: 1 μM
FLAG-tagged CRBN = FLAG-tagged CRBN (Homo sapiens, UniProt Q96SW2); test: FLAG-CRBN AP-MS, proteins enriched with CRBN; type: cell-based; conditions: HEK293T cells, 1 μM, 5 h, relative to SB1-G-187 and WH-10417–099
CSK = CSK (Homo sapiens, UniProt P41240); test: Global quantitative proteomics; type: cell-based; conditions: MOLT-4 cells, 1 μM, 5 h

Chain of YES1 (P07947 2-543 limits assumed): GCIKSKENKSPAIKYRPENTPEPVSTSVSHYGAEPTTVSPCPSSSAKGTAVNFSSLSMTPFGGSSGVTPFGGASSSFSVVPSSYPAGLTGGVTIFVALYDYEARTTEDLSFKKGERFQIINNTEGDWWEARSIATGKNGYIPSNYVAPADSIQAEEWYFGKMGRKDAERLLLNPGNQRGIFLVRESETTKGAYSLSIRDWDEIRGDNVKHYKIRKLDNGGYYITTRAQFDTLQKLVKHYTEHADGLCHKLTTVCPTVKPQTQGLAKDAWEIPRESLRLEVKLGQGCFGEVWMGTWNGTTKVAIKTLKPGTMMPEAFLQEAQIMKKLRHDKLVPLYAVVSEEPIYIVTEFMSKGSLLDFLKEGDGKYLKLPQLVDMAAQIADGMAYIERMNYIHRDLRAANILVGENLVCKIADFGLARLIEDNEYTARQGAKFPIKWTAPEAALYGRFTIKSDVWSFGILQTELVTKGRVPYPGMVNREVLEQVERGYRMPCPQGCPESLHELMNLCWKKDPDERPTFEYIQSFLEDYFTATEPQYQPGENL
Chain of YES1 (Q96SW2 whole entry partner): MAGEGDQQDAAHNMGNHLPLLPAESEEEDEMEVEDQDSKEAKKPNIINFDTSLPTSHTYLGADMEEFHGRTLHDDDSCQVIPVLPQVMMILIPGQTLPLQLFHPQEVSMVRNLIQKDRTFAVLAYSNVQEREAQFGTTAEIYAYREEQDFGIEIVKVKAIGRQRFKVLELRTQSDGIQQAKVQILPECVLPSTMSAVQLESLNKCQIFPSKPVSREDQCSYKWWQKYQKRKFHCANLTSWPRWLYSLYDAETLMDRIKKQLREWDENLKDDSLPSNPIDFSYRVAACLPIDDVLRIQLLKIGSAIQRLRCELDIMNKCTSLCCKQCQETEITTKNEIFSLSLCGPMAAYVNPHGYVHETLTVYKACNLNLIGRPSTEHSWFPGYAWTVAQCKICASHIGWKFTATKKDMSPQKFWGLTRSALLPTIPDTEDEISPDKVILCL
Chain of YES1 (Q16531 2-1140 partner limits assumed): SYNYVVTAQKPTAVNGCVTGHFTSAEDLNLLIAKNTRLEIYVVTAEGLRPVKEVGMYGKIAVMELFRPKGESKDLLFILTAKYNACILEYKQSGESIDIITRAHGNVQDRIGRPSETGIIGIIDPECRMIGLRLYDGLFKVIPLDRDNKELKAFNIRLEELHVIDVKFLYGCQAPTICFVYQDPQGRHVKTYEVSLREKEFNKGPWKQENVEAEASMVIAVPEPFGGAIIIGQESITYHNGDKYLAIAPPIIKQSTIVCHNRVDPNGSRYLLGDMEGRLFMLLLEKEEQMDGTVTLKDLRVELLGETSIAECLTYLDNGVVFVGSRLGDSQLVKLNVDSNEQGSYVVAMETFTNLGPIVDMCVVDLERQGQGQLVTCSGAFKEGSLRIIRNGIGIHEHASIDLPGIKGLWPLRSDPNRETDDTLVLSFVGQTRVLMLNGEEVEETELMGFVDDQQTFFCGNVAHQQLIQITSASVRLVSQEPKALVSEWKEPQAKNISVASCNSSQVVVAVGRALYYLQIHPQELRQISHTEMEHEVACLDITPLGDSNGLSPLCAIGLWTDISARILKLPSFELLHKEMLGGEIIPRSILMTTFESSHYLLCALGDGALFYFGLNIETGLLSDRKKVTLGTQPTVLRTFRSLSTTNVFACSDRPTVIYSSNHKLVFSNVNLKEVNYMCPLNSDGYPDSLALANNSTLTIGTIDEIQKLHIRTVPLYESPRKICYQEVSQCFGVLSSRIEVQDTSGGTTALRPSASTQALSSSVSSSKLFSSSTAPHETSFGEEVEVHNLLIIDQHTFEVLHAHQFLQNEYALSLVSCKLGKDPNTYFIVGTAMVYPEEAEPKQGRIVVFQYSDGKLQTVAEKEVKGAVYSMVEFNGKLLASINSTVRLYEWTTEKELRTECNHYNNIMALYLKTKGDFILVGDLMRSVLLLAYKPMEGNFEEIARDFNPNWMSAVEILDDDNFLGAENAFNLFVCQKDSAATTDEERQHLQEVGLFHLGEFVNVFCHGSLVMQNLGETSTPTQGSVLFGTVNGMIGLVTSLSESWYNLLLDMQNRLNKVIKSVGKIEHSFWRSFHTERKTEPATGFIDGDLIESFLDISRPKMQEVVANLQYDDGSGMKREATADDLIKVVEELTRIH
Chain of CDK17 (Q00537 whole entry): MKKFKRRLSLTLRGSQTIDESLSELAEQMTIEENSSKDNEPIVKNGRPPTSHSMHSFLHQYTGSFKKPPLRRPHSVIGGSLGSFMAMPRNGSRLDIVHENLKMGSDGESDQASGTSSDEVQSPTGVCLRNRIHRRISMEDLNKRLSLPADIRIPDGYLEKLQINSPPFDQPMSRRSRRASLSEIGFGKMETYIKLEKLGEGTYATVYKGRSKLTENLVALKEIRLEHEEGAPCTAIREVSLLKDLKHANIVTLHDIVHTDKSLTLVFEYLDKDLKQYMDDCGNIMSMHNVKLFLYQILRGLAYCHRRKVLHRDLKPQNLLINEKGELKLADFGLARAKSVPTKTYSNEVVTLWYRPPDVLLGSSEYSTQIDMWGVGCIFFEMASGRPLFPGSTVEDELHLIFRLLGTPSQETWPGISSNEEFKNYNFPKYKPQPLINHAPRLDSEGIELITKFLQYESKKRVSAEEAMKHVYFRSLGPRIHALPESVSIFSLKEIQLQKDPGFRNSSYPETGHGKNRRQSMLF
Chain of IRAK1 (P51617 whole entry): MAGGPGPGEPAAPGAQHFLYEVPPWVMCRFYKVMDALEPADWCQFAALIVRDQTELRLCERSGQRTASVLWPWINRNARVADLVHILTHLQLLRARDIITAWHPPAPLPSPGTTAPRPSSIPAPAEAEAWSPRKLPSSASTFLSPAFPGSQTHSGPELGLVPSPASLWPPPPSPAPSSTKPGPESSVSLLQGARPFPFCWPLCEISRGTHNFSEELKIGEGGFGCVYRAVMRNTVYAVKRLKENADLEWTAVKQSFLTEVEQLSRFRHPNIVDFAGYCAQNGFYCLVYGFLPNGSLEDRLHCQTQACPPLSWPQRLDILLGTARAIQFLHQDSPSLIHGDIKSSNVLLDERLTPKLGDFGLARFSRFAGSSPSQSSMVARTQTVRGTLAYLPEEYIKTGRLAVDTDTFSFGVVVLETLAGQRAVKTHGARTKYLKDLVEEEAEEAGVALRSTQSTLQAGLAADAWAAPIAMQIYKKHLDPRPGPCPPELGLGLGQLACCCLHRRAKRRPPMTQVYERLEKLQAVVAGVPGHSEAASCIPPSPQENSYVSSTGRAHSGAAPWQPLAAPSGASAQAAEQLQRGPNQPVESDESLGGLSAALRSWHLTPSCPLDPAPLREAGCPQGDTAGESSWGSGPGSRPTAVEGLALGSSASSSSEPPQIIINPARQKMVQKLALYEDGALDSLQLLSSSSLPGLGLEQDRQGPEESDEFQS
Chain of IRAK1 (Q96SW2 whole entry partner): as the sequence (Q96SW2 whole entry partner) above
Chain of IRAK1 (Q16531 2-1140 partner limits assumed): as the sequence (Q16531 2-1140 partner limits assumed) above
Chain of FLAG-tagged CRBN (Q96SW2 whole entry): as the sequence (Q96SW2 whole entry partner) above
Chain of FLAG-tagged CRBN (Q16531 2-1140 partner limits assumed): as the sequence (Q16531 2-1140 partner limits assumed) above
Chain of BUB1 (O43683 whole entry): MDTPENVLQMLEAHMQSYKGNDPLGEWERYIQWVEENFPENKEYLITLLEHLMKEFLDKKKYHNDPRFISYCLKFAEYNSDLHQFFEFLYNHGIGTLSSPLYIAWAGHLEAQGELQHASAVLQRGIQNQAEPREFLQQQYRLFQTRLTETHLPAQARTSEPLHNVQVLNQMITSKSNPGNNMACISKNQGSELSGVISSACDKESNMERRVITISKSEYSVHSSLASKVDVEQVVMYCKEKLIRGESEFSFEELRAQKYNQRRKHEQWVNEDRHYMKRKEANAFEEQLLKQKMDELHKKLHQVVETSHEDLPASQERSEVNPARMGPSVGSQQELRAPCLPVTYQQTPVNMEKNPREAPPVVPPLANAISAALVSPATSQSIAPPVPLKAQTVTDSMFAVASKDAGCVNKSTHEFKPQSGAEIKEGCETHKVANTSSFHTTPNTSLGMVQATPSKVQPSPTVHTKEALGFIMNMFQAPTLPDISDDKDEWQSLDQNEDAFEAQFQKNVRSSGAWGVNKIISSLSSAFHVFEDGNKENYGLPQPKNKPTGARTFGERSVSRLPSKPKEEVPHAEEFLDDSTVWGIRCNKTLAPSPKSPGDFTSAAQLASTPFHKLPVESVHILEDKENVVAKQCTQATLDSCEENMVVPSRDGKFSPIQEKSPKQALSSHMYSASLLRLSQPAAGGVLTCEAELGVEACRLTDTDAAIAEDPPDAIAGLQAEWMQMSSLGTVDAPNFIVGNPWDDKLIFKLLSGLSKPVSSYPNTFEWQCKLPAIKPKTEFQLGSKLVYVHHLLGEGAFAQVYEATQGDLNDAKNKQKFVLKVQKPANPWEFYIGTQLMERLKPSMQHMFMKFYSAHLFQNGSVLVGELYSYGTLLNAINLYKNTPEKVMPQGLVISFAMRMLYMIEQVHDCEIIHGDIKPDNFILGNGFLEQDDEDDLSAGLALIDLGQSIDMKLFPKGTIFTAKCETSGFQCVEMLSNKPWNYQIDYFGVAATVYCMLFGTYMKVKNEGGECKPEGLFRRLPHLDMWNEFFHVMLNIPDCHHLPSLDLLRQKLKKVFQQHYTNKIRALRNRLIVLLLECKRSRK
Chain of BUB1 (Q96SW2 whole entry partner): as the sequence (Q96SW2 whole entry partner) above
Chain of BUB1 (Q16531 2-1140 partner limits assumed): as the sequence (Q16531 2-1140 partner limits assumed) above

SMILES: Cc1ncsc1-c1ccc([C@H](C)NC(=O)[C@@H]2C[C@@H](O)CN2C(=O)[C@@H](NC(=O)CCOCCOCCNc2nccc(-c3sc(C(C)(C)C)nc3-c3cccc(NS(=O)(=O)c4c(F)cccc4F)c3F)n2)C(C)(C)C)cc1 [DD-03–156]
degradation of CDK17 (CDK17): potent and selective degradation; also recorded: exquisite | degradation of LIMK2 (LIMK2): potent and selective degradation

SMILES: COc1cc(Nc2ncc3c(n2)-c2ccc(Cl)cc2C(c2c(F)cccc2OC)=NC3)ccc1C(=O)NCCCOCCOCCOCCCNC(=O)COc1cccc2c1C(=O)N(C1CCC(=O)NC1=O)C2=O (stereo not shown) [dAURK-4]
degradation of AURKA (AURKA (Aurora A)): potent and selective degradation | antiproliferative effects [3]: superior antiproliferative effects

Second part, led by results:

LYN complex formation with CRBN and degradation (LYN): complex formation and degradation | GCK engagement, inhibition of probe binding (GCK [1]): 94 %I | YES1 complex formation with CRBN and degradation (YES1): complex formation and degradation | degradation of GCK (GCK [2]): degraded | IRAK1 complex formation with CRBN and degradation (IRAK1): complex formation and degradation
SMILES: Cc1ccc(C(=O)Nc2ccc(CN3CCN(CCCOCCOCCOCCNC(=O)COc4cccc5c4C(=O)N(C4CCC(=O)NC4=O)C5=O)CC3)c(C(F)(F)F)c2)cc1C#Cc1cnc2cccnn12 (stereo not shown) [SB1-G-187]

GCK engagement, inhibition of probe binding (GCK [1]): 50 %I | degradation of BUB1 (BUB1): degraded | degradation of GCK (GCK [2]): not degraded | transcript levels (MOLT-4 cells; 8 and 12 h time points): complete transcriptional collapse | enriched proteins in the CRBN AP-MS (FLAG-tagged CRBN): fewer enriched proteins
SMILES: CC(C)S(=O)(=O)c1ccccc1Nc1nc(Nc2ccc(N3CCN(CCOCCNC(=O)CNc4cccc5c4C(=O)N(C4CCC(=O)NC4=O)C5=O)CC3)cc2)ncc1Cl (stereo not shown) [SK-3–91]
YES1 complex formation with CRBN and degradation (YES1): complex formation does not predict degradation | transcript levels (MOLT-4 cells; up until the 4 h time point): largely unchanged | transcriptional changes of CAMKK2, DNAPK, IKKe and JAK2 (MOLT-4 cells; 4 h treatment): no upregulation

selectivity among CSK-degrading compounds (CSK): greatest selectivity | degradation of CSK (CSK; compared with the 15 library compounds that target CSK): strongest degradation
SMILES: Cc1nc(Nc2ncc(C(=O)Nc3c(C)cccc3Cl)s2)cc(N2CCN(CC(=O)NCCCCNC(=O)COc3cccc4c3C(=O)N(C3CCC(=O)NC3=O)C4=O)CC2)n1 (stereo not shown) [DB-3-291]
